{
  "source": "patent US20100242341A1",
  "about": "“CORROSION AND MICROBIAL CONTROL IN HYDROCARBONACEOUS COMPOSITIONS” (priority 2007, published 2010)",
  "format_in_all_cases": "cell-based",
  "key": {"[1]": {"system": "Hormoconis resinae ATCC# 20495", "test": "Microbial resistance of fuel, plate count", "procedure": "(§1) Bacteria. Pseudomonas aeruginosa ATCC# 33988, Yeast: Yarrowia tropicalis ATCC# 48138, and Mold: Hormoconis resinae ATCC# 20495, are sub cultured in Bushnell-Haas broth, and used for the mixed inoculum. The organism concentrations in the mixed inoculum are as follows: Ps. aeruginosa-4.8×10^8 cfu/mL; Y. tropicalis-2.2×10^7 cfu/mL; H. resinae-6.3×10^7 cfu/mL\n(§2) Testing is carried out in glass bottles with bakelite screw tops for four weeks. For each fuel sample, the aminoalcohol and then the biocide when present are added at the desired loadings to 130 mL of either diesel or biodiesel fuel with agitation for 5 min. Bushnell-Haas broth (24 mL) is added as the aqueous phase below the diesel fuel. One mL of the mixed inoculum is added. The samples are mixed weekly by turning the bottle upside down 5 times. The organism count listed for day 0 represents the initial organism populations detected in the water bottom after mixing the water bottom and the fuel.\n(§3) Microbial survival is measured using the plate count method. Tryptic soy agar is used for Pseudomonas aeruginosa, and Sabouraud dextrose agar with 0.5 ug/ml gentamycin for Yarrowia tropicalis, and bacteriological grade agar 1.5%, with 0.01% potassium tellurite for Hormoconis resinae. Bacteria are incubated at 37° C. for 48 hours, and fungi at 25° C. for 5-7 days."}, "[2]": {"system": "Pseudomonas aeruginosa ATCC# 33988", "test": "Microbial resistance of fuel, plate count", "procedure": "as §1, §2, §3"}, "[3]": {"system": "Yarrowia tropicalis ATCC# 48138", "test": "Microbial resistance of fuel, plate count", "procedure": "as §1, §2, §3"}, "[4]": {"system": "mixed inoculum (Ps. aeruginosa, Y. tropicalis, H. resinae)", "test": "Microbial resistance of fuel, mixed inoculum (overall statements)", "details": "diesel fuel", "procedure": "as §1, §2, §3"}, "[5]": {"details": "biodiesel, 3A40 1500 ppm, Week 1"}, "[6]": {"details": "biodiesel, 3A40 1500 ppm, Week 2"}, "[7]": {"details": "biodiesel, 3A40 1500 ppm, Week 3"}, "[8]": {"details": "biodiesel, 3A40 1500 ppm, Week 4"}, "[9]": {"details": "biodiesel, 3A40 3000 ppm, Week 1"}, "[10]": {"details": "biodiesel, 3A40 3000 ppm, Week 2"}, "[11]": {"details": "biodiesel, 3A40 3000 ppm, Week 3"}, "[12]": {"details": "biodiesel, 3A40 3000 ppm, Week 4"}, "[13]": {"details": "diesel, aminoalcohol 1500 ppm, Day 0"}, "[14]": {"details": "diesel, aminoalcohol 1500 ppm, Wk 1"}, "[15]": {"details": "diesel, aminoalcohol 1500 ppm, Wk 2"}, "[16]": {"details": "diesel, aminoalcohol 1500 ppm, Wk 3"}, "[17]": {"details": "diesel, aminoalcohol 1500 ppm, Wk 4"}, "[18]": {"details": "diesel, aminoalcohol 3000 ppm, Day 0"}, "[19]": {"details": "diesel, aminoalcohol 3000 ppm, Wk 1"}, "[20]": {"details": "diesel, aminoalcohol 3000 ppm, Wk 2"}, "[21]": {"details": "diesel, aminoalcohol 3000 ppm, Wk 3"}, "[22]": {"details": "diesel, aminoalcohol 3000 ppm, Wk 4"}},
  "data": [
    {"smiles": "CCCCC(O)C(N)CC", "note": "(centres unmarked) [Example 3A4O, 3-amino-4-octanol]", "values": [
      {"measurement": "H. resinae count", "setting": "[1]; [5]", "value": "<1.0E2"},
      {"measurement": "H. resinae count", "setting": "[1]; [6]", "value": "<1.0E2"},
      {"measurement": "H. resinae count", "setting": "[1]; [7]", "value": "<1.0E2"},
      {"measurement": "H. resinae count", "setting": "[1]; [8]", "value": "<1.0E2"},
      {"measurement": "H. resinae count", "setting": "[1]; [9]", "value": "<1.0E2"},
      {"measurement": "H. resinae count", "setting": "[1]; [10]", "value": "<1.0E2"},
      {"measurement": "H. resinae count", "setting": "[1]; [11]", "value": "<1.0E2"},
      {"measurement": "H. resinae count", "setting": "[1]; [12]", "value": "<1.0E2"},
      {"measurement": "H. resinae count", "setting": "[1]; [13]", "value": "4.2E5"},
      {"measurement": "H. resinae count", "setting": "[1]; [14]", "value": "2.7E5"},
      {"measurement": "H. resinae count", "setting": "[1]; [15]", "value": "3.8E5"},
      {"measurement": "H. resinae count", "setting": "[1]; [16]", "value": "7.7E5"},
      {"measurement": "H. resinae count", "setting": "[1]; [17]", "value": "4.4E6"},
      {"measurement": "H. resinae count", "setting": "[1]; [18]", "value": "4.2E5"},
      {"measurement": "H. resinae count", "setting": "[1]; [19]", "value": "3.5E5"},
      {"measurement": "H. resinae count", "setting": "[1]; [20]", "value": "6.7E5"},
      {"measurement": "H. resinae count", "setting": "[1]; [21]", "value": "8.2E5"},
      {"measurement": "H. resinae count", "setting": "[1]; [22]", "value": "6.0E6"},
      {"measurement": "Ps. aeruginosa count", "setting": "[2]; [5]", "value": "<1.0E2"},
      {"measurement": "Ps. aeruginosa count", "setting": "[2]; [6]", "value": "<1.0E2"},
      {"measurement": "Ps. aeruginosa count", "setting": "[2]; [7]", "value": "<1.0E2"},
      {"measurement": "Ps. aeruginosa count", "setting": "[2]; [8]", "value": "<1.0E2"},
      {"measurement": "Ps. aeruginosa count", "setting": "[2]; [9]", "value": "<1.0E2"},
      {"measurement": "Ps. aeruginosa count", "setting": "[2]; [10]", "value": "<1.0E2"},
      {"measurement": "Ps. aeruginosa count", "setting": "[2]; [11]", "value": "<1.0E2"},
      {"measurement": "Ps. aeruginosa count", "setting": "[2]; [12]", "value": "<1.0E2"},
      {"measurement": "synergy with biocide", "setting": "[2]; diesel fuel, with BIT, against Ps. Aeruginosa (FIG. 3)", "value": "not significant"},
      {"measurement": "Ps. aeruginosa count", "setting": "[2]; [13]", "value": "1.4E6"},
      {"measurement": "Ps. aeruginosa count", "setting": "[2]; [14]", "value": "1.7E6"},
      {"measurement": "Ps. aeruginosa count", "setting": "[2]; [15]", "value": "4.2E6"},
      {"measurement": "Ps. aeruginosa count", "setting": "[2]; [16]", "value": "7.3E6"},
      {"measurement": "Ps. aeruginosa count", "setting": "[2]; [17]", "value": "4.8E7"},
      {"measurement": "Ps. aeruginosa count", "setting": "[2]; [18]", "value": "1.4E6"},
      {"measurement": "Ps. aeruginosa count", "setting": "[2]; [19]", "value": "8.7E5"},
      {"measurement": "Ps. aeruginosa count", "setting": "[2]; [20]", "value": "2.0E6"},
      {"measurement": "Ps. aeruginosa count", "setting": "[2]; [21]", "value": "5.7E6"},
      {"measurement": "Ps. aeruginosa count", "setting": "[2]; [22]", "value": "2.3E7"},
      {"measurement": "Y. tropicalis count", "setting": "[3]; [5]", "value": "<1.0E2"},
      {"measurement": "Y. tropicalis count", "setting": "[3]; [6]", "value": "<1.0E2"},
      {"measurement": "Y. tropicalis count", "setting": "[3]; [7]", "value": "<1.0E2"},
      {"measurement": "Y. tropicalis count", "setting": "[3]; [8]", "value": "<1.0E2"},
      {"measurement": "Y. tropicalis count", "setting": "[3]; [9]", "value": "<1.0E2"},
      {"measurement": "Y. tropicalis count", "setting": "[3]; [10]", "value": "<1.0E2"},
      {"measurement": "Y. tropicalis count", "setting": "[3]; [11]", "value": "<1.0E2"},
      {"measurement": "Y. tropicalis count", "setting": "[3]; [12]", "value": "<1.0E2"},
      {"measurement": "synergy with biocide", "setting": "[3]; diesel fuel, with BIT, Y. tropicalis", "value": "evident"},
      {"measurement": "Y. tropicalis count", "setting": "[3]; [13]", "value": "3.3E5"},
      {"measurement": "Y. tropicalis count", "setting": "[3]; [14]", "value": "1.1E5"},
      {"measurement": "Y. tropicalis count", "setting": "[3]; [15]", "value": "8.0E5"},
      {"measurement": "Y. tropicalis count", "setting": "[3]; [16]", "value": "2.2E6"},
      {"measurement": "Y. tropicalis count", "setting": "[3]; [17]", "value": "8.3E6"},
      {"measurement": "Y. tropicalis count", "setting": "[3]; [18]", "value": "3.3E5"},
      {"measurement": "Y. tropicalis count", "setting": "[3]; [19]", "value": "2.0E5"},
      {"measurement": "Y. tropicalis count", "setting": "[3]; [20]", "value": "6.3E5"},
      {"measurement": "Y. tropicalis count", "setting": "[3]; [21]", "value": "3.0E6"},
      {"measurement": "Y. tropicalis count", "setting": "[3]; [22]", "value": "1.2E7"},
      {"measurement": "synergy with biocide", "setting": "[4]; with FUELSAVER (FIG. 1)", "value": "particularly synergistic"},
      {"measurement": "synergy with biocide", "setting": "[4]; with Kathon (CMIT/MIT) (FIG. 2)", "value": "more evident early on in the testing and then appears to taper off with time"},
      {"measurement": "synergy with biocide", "setting": "[4]; with the three biocides evaluated", "value": "Synergy, however, is observed"}
    ]},
    {"smiles": "CC(C)(N)CO", "note": "[AMP, 2-Amino-2-methyl-1-propanol, reference compound]", "values": [
      {"measurement": "H. resinae count", "setting": "[1]; [13]", "value": "4.2E5"},
      {"measurement": "H. resinae count", "setting": "[1]; [14]", "value": "3.0E5"},
      {"measurement": "H. resinae count", "setting": "[1]; [15]", "value": "6.4E5"},
      {"measurement": "H. resinae count", "setting": "[1]; [16]", "value": "7.4E5"},
      {"measurement": "H. resinae count", "setting": "[1]; [17]", "value": "1.8E6"},
      {"measurement": "H. resinae count", "setting": "[1]; [18]", "value": "4.2E5"},
      {"measurement": "H. resinae count", "setting": "[1]; [19]", "value": "1.2E5"},
      {"measurement": "H. resinae count", "setting": "[1]; [20]", "value": "4.5E5"},
      {"measurement": "H. resinae count", "setting": "[1]; [21]", "value": "5.8E5"},
      {"measurement": "H. resinae count", "setting": "[1]; [22]", "value": "3.3E6"},
      {"measurement": "Ps. aeruginosa count", "setting": "[2]; [13]", "value": "1.4E6"},
      {"measurement": "Ps. aeruginosa count", "setting": "[2]; [14]", "value": "8.7E5"},
      {"measurement": "Ps. aeruginosa count", "setting": "[2]; [15]", "value": "2.3E6"},
      {"measurement": "Ps. aeruginosa count", "setting": "[2]; [16]", "value": "4.4E6"},
      {"measurement": "Ps. aeruginosa count", "setting": "[2]; [17]", "value": "1.2E7"},
      {"measurement": "Ps. aeruginosa count", "setting": "[2]; [18]", "value": "1.4E6"},
      {"measurement": "Ps. aeruginosa count", "setting": "[2]; [19]", "value": "2.2E6"},
      {"measurement": "Ps. aeruginosa count", "setting": "[2]; [20]", "value": "4.0E6"},
      {"measurement": "Ps. aeruginosa count", "setting": "[2]; [21]", "value": "6.0E6"},
      {"measurement": "Ps. aeruginosa count", "setting": "[2]; [22]", "value": "4.2E7"},
      {"measurement": "Y. tropicalis count", "setting": "[3]; [13]", "value": "3.3E5"},
      {"measurement": "Y. tropicalis count", "setting": "[3]; [14]", "value": "1.3E5"},
      {"measurement": "Y. tropicalis count", "setting": "[3]; [15]", "value": "7.2E5"},
      {"measurement": "Y. tropicalis count", "setting": "[3]; [16]", "value": "1.3E6"},
      {"measurement": "Y. tropicalis count", "setting": "[3]; [17]", "value": "7.0E6"},
      {"measurement": "Y. tropicalis count", "setting": "[3]; [18]", "value": "3.3E5"},
      {"measurement": "Y. tropicalis count", "setting": "[3]; [19]", "value": "9.0E4"},
      {"measurement": "Y. tropicalis count", "setting": "[3]; [20]", "value": "2.3E5"},
      {"measurement": "Y. tropicalis count", "setting": "[3]; [21]", "value": "5.2E5"},
      {"measurement": "Y. tropicalis count", "setting": "[3]; [22]", "value": "4.3E6"}
    ]}
  ]
}
